Our source for the inhibition values is patent publication US20160159773A1, “HETEROCYCLIC COMPOUND” (TAKEDA PHARMACEUTICAL COMPANY LIMITED, priority 2013, published 2016).

Molecules are shown by their SMILES. Counter-ions that a name gives are not always drawn.

The target in the assay is T1, Tyk2 (Homo sapiens, UniProt P29597).
T1 construct: purchased Invitrogen
T1 sequence (P29597 whole entry): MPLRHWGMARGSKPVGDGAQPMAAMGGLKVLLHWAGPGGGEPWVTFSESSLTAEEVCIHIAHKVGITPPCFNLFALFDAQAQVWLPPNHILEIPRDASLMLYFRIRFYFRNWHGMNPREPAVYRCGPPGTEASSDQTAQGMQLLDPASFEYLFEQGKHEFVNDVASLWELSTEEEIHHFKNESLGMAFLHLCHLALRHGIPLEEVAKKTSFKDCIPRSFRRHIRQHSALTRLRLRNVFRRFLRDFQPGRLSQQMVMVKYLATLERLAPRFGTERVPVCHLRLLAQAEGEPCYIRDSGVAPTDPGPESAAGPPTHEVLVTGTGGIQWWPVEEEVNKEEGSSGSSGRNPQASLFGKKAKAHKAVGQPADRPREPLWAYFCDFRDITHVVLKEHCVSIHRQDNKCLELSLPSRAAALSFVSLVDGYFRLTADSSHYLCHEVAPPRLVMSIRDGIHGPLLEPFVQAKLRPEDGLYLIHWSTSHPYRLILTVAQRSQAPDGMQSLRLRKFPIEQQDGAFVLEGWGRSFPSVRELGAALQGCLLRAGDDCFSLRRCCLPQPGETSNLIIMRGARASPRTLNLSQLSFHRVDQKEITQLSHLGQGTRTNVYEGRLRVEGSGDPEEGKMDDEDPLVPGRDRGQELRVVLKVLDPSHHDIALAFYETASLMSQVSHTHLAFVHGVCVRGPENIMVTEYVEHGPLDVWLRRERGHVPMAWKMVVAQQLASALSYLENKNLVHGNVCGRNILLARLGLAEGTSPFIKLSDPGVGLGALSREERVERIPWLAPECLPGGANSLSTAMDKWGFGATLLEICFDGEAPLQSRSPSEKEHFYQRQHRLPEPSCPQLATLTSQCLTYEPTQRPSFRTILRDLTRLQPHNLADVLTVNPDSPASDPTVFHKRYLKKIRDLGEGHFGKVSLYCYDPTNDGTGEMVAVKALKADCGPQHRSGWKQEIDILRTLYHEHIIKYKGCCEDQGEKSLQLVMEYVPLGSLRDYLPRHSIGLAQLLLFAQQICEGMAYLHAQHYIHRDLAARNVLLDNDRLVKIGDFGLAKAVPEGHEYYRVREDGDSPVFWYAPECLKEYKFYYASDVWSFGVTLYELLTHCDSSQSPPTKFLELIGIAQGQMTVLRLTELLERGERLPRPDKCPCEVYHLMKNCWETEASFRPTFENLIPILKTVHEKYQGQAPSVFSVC
Description: Tyk2 enzyme inhibition test (LANCE method). The assay is classed as biochemical. Particulars: test compound 1 μM; well without enzyme = 100% inhibition; read-out: Tyk2 enzyme inhibitory activity (%, 1 μM). The procedure: Tyk2 Enzyme Inhibition Test
Tyk2 enzyme inhibitory activity of test compounds was measured by LANCE method (PerkinElmer). First, a test compound diluted with assay buffer (50 mM HEPES (pH=7.5), 10 mM MgCl2, 1 mM EGTA, 2 mM DTT, 0.01% Tween20, 0.01% BSA) was added to 384-well plate at 2 μL each. Then, a Tyk2 (Invitrogen) solution and a fluorescence-labeled peptide substrate (ULight-JAK1, PerkinElmer) solution diluted with assay buffer at 375 ng/mL and 300 nM, respectively were added at 2 μL each. Then, enzyme reaction was started by adding 2 μL each of ATP solution prepared with assay buffer at 30 μM. After the reaction at room temperature for 1 hr, Detection Buffer (PerkinElmer) prepared to be 20 mM EDTA, 4 nM europium-labeled anti-phosphotyrosine antibody (PerkinElmer) was added at 6 μL each. After standing at room temperature for 1 hr, fluorescence intensity (excitation wavelength 340 nm, fluorescence wavelength 665 nm, delay time 100 microsecond) was measured by a plate reader, Envision (PerkinElmer). The inhibitory activity of each compound was calculated as relative value where fluorescence intensity of a well without enzyme is considered as 100% inhibition.
Background: Time-resolved FRET reads energy transfer from a long-lived donor to a nearby acceptor.
Turning to `N#C[C@@]1(C2CC2)CCN(c2ccnc(Nc3ccc(N4CCOCC4)cn3)c2)C1=O` [Example 1, (3S)-3-cyclopropyl-1-(2-((5-(morpholin-4-yl)pyridin-2-yl)amino)pyridin-4-yl)-2-oxopyrrolidine-3-carbonitrile], the inhibition at 1 µM amounted to 99%.

For `CC(C)(O)c1ccc(Nc2cc(N3CC[C@@](C#N)(C4CC4)C3=O)ccn2)nc1` [Example 3, (3S)-3-cyclopropyl-1-(2-((5-(2-hydroxypropan-2-yl)pyridin-2-yl)amino)pyridin-4-yl)-2-oxopyrrolidine-3-carbonitrile], the inhibition at 1 µM came to 99%.

`CNC(=O)c1cc(Nc2cc(N3CC[C@@](C#N)(C4CC4)C3=O)ccn2)nn1C` [Example 5, 3-((4-((3S)-3-cyano-3-cyclopropyl-2-oxopyrrolidin-1-yl)pyridin-2-yl)amino)-N,1-dimethyl-1H-pyrazole-5-carboxamide]: the inhibition at 1 µM worked out at 101%.

Take `CC(=O)Nc1ccnc(Nc2cc(N3CC[C@@](C#N)(C4CC4)C3=O)ccn2)c1` [Example 29, N-(2-((4-((3S)-3-cyano-3-cyclopropyl-2-oxopyrrolidin-1-yl)pyridin-2-yl)amino)pyridin-4-yl)acetamide]: the inhibition at 1 µM turned out to be 100%.

Consider `Cn1nc(Nc2cc(N3CC[C@@](C#N)(C4CC4)C3=O)ccn2)cc1N1CCOCC1` [Example 31, (3S)-3-cyclopropyl-1-(2-((1-methyl-5-(morpholin-4-yl)-1H-pyrazol-3-yl)amino)pyridin-4-yl)-2-oxopyrrolidine-3-carbonitrile], for which the inhibition at 1 µM came out at 100%.

For the compound `N#C[C@@]1(C2CC2)CCN(c2ccnc(Nc3cc(C(F)(F)F)ncn3)c2)C1=O` [Example 43, (3S)-3-cyclopropyl-2-oxo-1-(2-((6-(trifluoromethyl)pyrimidin-4-yl)amino)pyridin-4-yl)pyrrolidine-3-carbonitrile], the inhibition at 1 µM amounted to 95%.

Consider `N#C[C@@]1(C2CC2)CCN(c2ccnc(Nc3cccnn3)c2)C1=O` [Example 92, (3S)-3-cyclopropyl-2-oxo-1-(2-(pyridazin-3-ylamino)pyridin-4-yl)pyrrolidine-3-carbonitrile], for which the inhibition at 1 µM was 96%.

Regarding `CCC1(C#N)CCN(c2ccnc(Nc3ccc(N4CCOCC4)cn3)c2)C1=O` (stereo not shown) [Example 126, 3-ethyl-1-(2-((5-(morpholin-4-yl)pyridin-2-yl)amino)pyridin-4-yl)-2-oxopyrrolidine-3-carbonitrile hydrochloride], the inhibition at 1 µM turned out to be 72%.

As for `N#CC1(C2CC2)CCN(c2ccnc(Nc3ccc(N4CCOCC4)cn3)c2)C1=O` (stereo not shown) [Example 127, 3-cyclopropyl-1-(2-((5-(morpholin-4-yl)pyridin-2-yl)amino)pyridin-4-yl)-2-oxopyrrolidine-3-carbonitrile], the inhibition at 1 µM was 83%.

As to `CC(C)(CO)n1cc(Nc2cc(N3CCC(C#N)(C4CC4)C3=O)ccn2)cn1` (stereo not shown) [Example 129, 3-cyclopropyl-1-(2-((1-(1-hydroxy-2-methylpropan-2-yl)-1H-pyrazol-4-yl)amino)pyridin-4-yl)-2-oxopyrrolidine-3-carbonitrile], the inhibition at 1 µM is 90%.

In the case of `CNC(=O)c1cc(Nc2cc(N3C(=O)[C@](C#N)(C4CC4)C[C@H]3C)ccn2)nn1C` [Example 136, 3-((4-((3S,5R)-3-cyano-3-cyclopropyl-5-methyl-2-oxopyrrolidin-1-yl)pyridin-2-yl)amino)-N,1-dimethyl-1H-pyrazole-5-carboxamide], the inhibition at 1 µM stood at 106%.

Turning to `C[C@@H]1C[C@@](C#N)(C2CC2)C(=O)N1c1ccnc(Nc2cc(C(N)=O)n(C)n2)c1` [Example 137, 3-((4-((3S,5R)-3-cyano-3-cyclopropyl-5-methyl-2-oxopyrrolidin-1-yl)pyridin-2-yl)amino)-1-methyl-1H-pyrazole-5-carboxamide], the inhibition at 1 µM worked out at 107%.

With `Cn1nc(Nc2cc(N3CC[C@@](C#N)(C4CC4)C3=O)ccn2)cc1C(N)=O` [Example 138, 3-((4-((3S)-3-cyano-3-cyclopropyl-2-oxopyrrolidin-1-yl)pyridin-2-yl)amino)-1-methyl-1H-pyrazole-5-carboxamide], the inhibition at 1 µM came out at 102%.
